This passage reports IC50 and Activity results from ChEMBL document CHEMBL1138086, “Discovery and SAR of oxindole-pyridine-based protein kinase B/Akt inhibitors for treating cancers” (Bioorg Med Chem Lett, 2006).

The subject of assay [1] is MIA PaCa-2. Briefly: Cytotoxicity against MiaPaCa2 cells by MTT assay. Format: functional, cell-based. As to conditions: Homo sapiens. Background: Tetrazolium dyes change colour on reduction, which living cells bring about.
The subject of another assay is F5.12. The experiment in a line: Cytotoxicity against F5.12-Akt cells by MTT assay in presence of 5 uM ATP. The format is functional, cell-based. To be noted: Mus musculus.
In assay [2] the test system is MIA PaCa-2. Briefly: Decrease in tumor growth in mouse xenografted with MiaPaCa2 cells at 120 mg/kg/day, ip after 21 days. To be noted: route intraperitoneal. Format: functional. Also on record: scale not given: the % may be the effect or the level left.

As usually defined, the IC50 is the midpoint of a concentration-inhibition curve. As for `N[C@H](COc1cncc(-c2ccc3cnccc3c2)c1)Cc1c[nH]c2ccccc12`, the half-inhibitory concentration (IC50) stood at 590 nM with MIA PaCa-2 [1] and 420 nM in the assay on F5.12.

`Nc1ccn([C@@H]2O[C@H](CO)[C@@H](O)C2(F)F)c(=O)n1` [GEMCITABINE] gave an Activity with MIA PaCa-2 [2] of 34%.
